US20250057951A1, “DISCERNIBLE CELL SURFACE PROTEIN VARIANTS OF CD117 FOR USE IN CELL THERAPY” (UNIVERSITÄT BASEL, priority 2021, published 2025)

Key:
antibody Refmab #1 [1] = assay: Octet screen: binding of CD117 D1-2-3 variants to captured Refmab #1; conditions: nm shift at end of association, top analyte concentration (500 nM)
Summary of the method: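 Refmab #1 captured on anti-human Fc biosensors; human CD117 D1-2-3 wt or variants flowed as analyte at 500, 50 and 5 nM, 25° C., 300 s association/900 s dissociation, buffer-referenced. Binding level at top concentration, end of association, expressed as percent of wild type; 1:1 fits where possible.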

antibody Refmab #1 [2] = assay: Octet titration, steady state KD of CD117 D1-2-3 variants to Refmab #1; type: binding
Method: To further characterize binding of Refmab #1 to CD117 D1-2-3 variants E73K, E73L, E73R, E73Y, D121H, D121K, S123K and S123F, the analytes were titrated at 7 different concentrations (from 2000 nM to 5 nM). Antibody Refmab #1 was captured by AHC biosensors for 300 s at 0.5 to 1 μg/mL. Association and dissociation to Refmab #1 was extended to 600 s and 1000 s, respectively. Steady state analysis was performed.

TF-1 cells [3] = assay: SCF-dependent proliferation of TF-1 cells with CD117 knock-in (CellTiter-Glo); type: cell-based, human; conditions: 100 ng/ml SCF; 3 days; knock-in TF-1 cells
Method: (§1) SCF-dependent proliferation is another function of CD117. SCF-dependent proliferation was measured as follows: TF-1 cells were seeded at a cell concentration of 150 000 cells/ml in sterile, white cell culture treated plates in RPMI Media+10% FCS. Cells were treated with 100 ng/ml of SCF and a titration of various CD117 antibodies or an isotype control antibody at different concentrations. After 3 days of incubation a CellTiter-Glo 2.0 assay (Promega) was performed and luminescence was read in a luminometer (e.g. Envision or Phera Star plate readers).
(§2) CD117 wild-type TF-1 cells were compared to TF1 cells with a E73K knock in. […] Both KI1 and KI2 were obtained upon sorting the edited TF1 cells using the SONY MA900, removing any wild-type and knock out cells from the final subsets, thus yielding high purity of knock in.

TF-1 cells [4] = assay: SCF-dependent proliferation, SCF titration on TF-1 cells with CD117 variants (CellTiter-Glo); type: cell-based, human; conditions: titration of SCF; 3 days; TF-1 cells with the CD117 variant
Summary of the method: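 TF-1 cells expressing wildtype or variant CD117 seeded at 150 000 cells/ml in RPMI+GlutaMax+10% FCS and titrated with SCF. Viability read by CellTiter-Glo 2.0 luminescence after 3 days; EC50 determined from two experiments, each in triplicate.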

TF-1 cells [5] = assay: SCF-dependent phosphorylation of CD117 variants in TF-1 cells (Tyr719 ELISA); type: cell-based, human; conditions: 1-20 ng/ml SCF for 5 minutes
Method: TF-1 cells (wild type, knock out, and variants E73K, D121K and S123K of CD117) were seeded at a concentration of 1 million cells/ml in 2 ml of Medium (RPMI1640 supplemented with GlutaMAX+10% heat inactivated FBS) in a 6-well plate. Cells were treated with 1-20 ng/ml recombinant human SCF (1 mg/ml PeproGMP Recombinant Human SCF) for 5 minutes, before cell collection. Cells were washed with ice-cold PBS, before resuspending cells in 500 μL Lysis Buffer (Lysis buffer from Signaling containing Protease Inhibitor and Phosphatase Inhibitor). Cells were flash frozen in liquid nitrogen and thawed at 37° C. twice, before freezing them at −80° C. until further usage. Undiluted samples were thawed and processed according to the manufacturers protocol for the PathScan Phospho-c-Kit (Tyr719) Sandwich ELISA Kit (Cell Signaling). Absorbance (OD_450 nm) was assessed using the Envision (Perkin Elmer).

Refmab #1 = Refmab #1 titration on engineered TF-1 cells (flow cytometry); type: binding; conditions: 5-0.00015 μg/mL antibody; 4° C.
Method: Binding of Refmab #1 was assessed in a flow cytometry assay. TF-1 cells were seeded at a cell concentration of 1,000,000 cells/ml in FACS Buffer (PBS+2% FCS+1 mM EDTA). After a Fc blocking using 1:20 diluted TruStain (BioLegend, #422302) in FACS buffer for 15 minutes at 4° C., cells were washed twice with FACS buffer. Subsequently, a SR-1 titration was added to the cells using 5-0.00015 μg/mL antibody for 30 minutes at 4° C. on a plate shaker. Cells were washed twice with FACS buffer and a secondary labelled antibody (IgG (H+L) Cross-Adsorbed Goat anti-Human, Alexa Fluor® 488, Invitrogen, A11013) was added to the cells for 30 minutes at 4° C. on a plate shaker. Cells were washed twice with FACS buffer, before adding 1:100 diluted solution of 7AAD staining (cell viability) in FACS buffer for a couple of minutes and analyzing the cells using the Novocyte Quanteon (Agilent).

CD117+ myeloid cells = assay: Depletion experiment in NSG mice with E73K gene-edited HSPCs; type: in vivo; conditions: in the presence of isotype control antibody
Method: In another experiment, NSG mice (Jackson Laboratories) were sub-lethally irradiated one day before injection with 1 Mio gene-edited HSPCs carrying a E73K variant of CD117. 8, 10, 12 and 14 days after cell injection mice received 25 mg/kg antibody Refmab #1-Bert or 25 mg/kg isotope control antibody i.v. per dose. 16 weeks later the mice were euthanized, and blood, spleen and bone marrow were analyzed by FACS.
CD117+ myeloid cells were identified by FACS as live/hCD45+/CD33+/CD117+. […] Clone 104D2 was used as an expression control. Cells were classified as not edited (104D2+ and SR-1+) or E73K edited (104D2+ but SR-1−) based on double staining with anti-CD117 clone SR-1 and anti-CD117 clone 104D2.

wild type TF-1 cells = assay: Inhibition of SCF-dependent proliferation, wild type TF-1 cells; type: cell-based, human; conditions: for effect on SCF-dependent proliferation of wild type TF-1 cells: 100 ng/ml SCF, increasing concentrations, 3 days
Method: as §1
(§3) Next, proliferation of the variants was tested with increasing concentrations of RefMab #1 at a constant concentration of SCF (100 ng/ml). TF-1 cells were seeded at a cell concentration of 150 000 cells/ml in sterile, white cell culture treated plates with transparent bottom in RPMI+GlutaMax+10% FCS and a fix concentration of 100 ng/ml SCF in the media, Cells were treated with different concentrations of RefMab #1. After 3 days of incubation a CellTiter-Glo 2,0 assay (Promega) was performed, luminescence was read in a luminometer (Envision plate reader).

[6] = test system: TF-1 cells with knock-ins of CD117 variants; assay: Inhibition of SCF-dependent proliferation, TF-1 cells with CD117 variant knock-in; type: cell-based, human; conditions: 100 ng/ml SCF; increasing concentrations; 3 days; E73K; all variants tested; listed as RefMab #1
Method: as §1, §2, §3

HSPC's = assay: Inhibition of SCF-dependent proliferation, HSPCs; type: cell-based, human
Method: For human CD34+ HSCs (different donors) cells are seeded in X-Vivo 20 medium with 100 ng/ml SCF, 50 ng/ml TPO and 50 ng/ml FLT-3 Ligand in sterile white cell culture treated plates at a cell density of 30 000 cells/ml. HSCs are then treated with various CD117 antibodies or an isotype control antibody at different concentrations and plates are incubated for 5 days. After 5 days a CellTiter-Glo 2.0 assay (Promega) is performed and luminescence is read in a luminometer (e.g. Envision or Phera Star plate readers).

CD117 = assay: Blocking of SCF-induced CD117 phosphorylation (Tyr719 ELISA), wild type TF-1 cells; type: cell-based, human; conditions: 0.5 ug/mL antibody or 500 nM avapritinib; 100 ng/ml SCF 5 minutes
Method: (§4) SCF-dependent phosphorylation is another function of CD117. SCF-dependent phosphorylation was measured using TF-1 cells expressing CD117 (as shown in previous experiments). TF-1 cells were seeded at a concentration of 1 million cells/ml in 1 ml of Medium (RPMI1640 supplemented with GlutaMAX+10% heat inactivated FBS) in a 6-well plate. Cells were treated with 0.5 ug/mL antibody or 500 nM avapratinib. Cells were then treated with 100 ng/ml recombinant human SCF (1 mg/ml PeproGMP® Recombinant Human SCF) for 5 minutes, before cell collection. Cells were washed with ice-cold PBS, before resuspending cells in 250 μL Lysis Buffer (Lysis buffer from Signaling containing Protease Inhibitor and Phosphatase Inhibitor). Cells were flash frozen in liquid nitrogen and thawed at 37° C. twice, before freezing them at −80° C. until further usage. Undiluted samples were thawed and processed according to the manufacturers protocol for the PathScan® Phospho-c-Kit (Tyr719) Sandwich ELISA Kit (Cell Signaling). Absorbance (OD_450 nm) was assessed using the Envision (Perkin Elmer).
(§5) TF-1 cells (wild type, and variants E73K, E73Y, D121K, S123F and S123K of CD117) were seeded at a concentration of 1 million cells/mL in 2 ml of Medium (RPMI1640 supplemented with GlutaMAX+10% heat inactivated FBS) in a 6-well plate. Cells were pre-treated with 0.5 μg/ml of antibodies Refmab #1-Ernie or Refmab #1-Bert for 30 minutes, before adding 100 ng/ml recombinant human SCF (1 mg/mL PeproGMP® Recombinant Human SCF) for 5 minutes. Cells were collected, washed once with ice-cold PBS and resuspended in 500 μL Lysis Buffer (Lysis buffer from Signaling containing Protease Inhibitor and Phosphatase Inhibitor). Cells were then flash frozen in liquid nitrogen and thawed at 37° C. twice, before freezing them at −80° C. until further usage. Undiluted samples were thawed and processed according to the manufacturers protocol for the PathScan Phospho-c-Kit (Tyr719) Sandwich ELISA Kit (Cell Signaling) or the Human c-Kit (CD117) ELISA Kit (Abcam). Absorbance (OD_450 nm) was assessed using the Envision (Perkin Elmer).

variants of CD117 = assay: Blocking of SCF-induced CD117 phosphorylation (Tyr719 ELISA), TF-1 cells with CD117 variants; type: cell-based, human; conditions: 0.5 ug/mL antibody or 500 nM avapritinib; 100 ng/ml SCF 5 minutes
Method: as §4, §5

[7] = Melting temperature of CD117 variants by differential scanning fluorimetry; type: physicochemical; conditions: Sypro Orange, PBS, 25 to 95° C.
Method: Biophysical properties of the elected variants were tested. Aggregation of the elected CD117 variants was determined by preparative size exclusion chromatography. Yield of the elected CD117 variants was determined by dividing the amount of protein after purification by the production volume. Melting temperature was measured by differential scanning fluorimetry using Sypro Orange (Sigma, PN: S5692-50 ul) and an RT-PCR machine (C1000 Thermal Cycler, Biorad). The samples were measured at 0.25-1.0 mg/ml in PBS buffer in duplicates and Sypro Orange was added at a final concentration of 5×. […] The fluorescent increase was monitored as a function of temperature and the melting temperature was determined as the inflexion point of the sigmoidal curve and compared to wild-type CD117. Results are shown in FIGS. 4 (aggregation), 5 (yield) and 6 (melting temperature).

Biotinylated Avitag-hSCF = biological target: T1, Biotinylated Avitag-hSCF (human, UniProt P21583 26-190, limits assumed, biotinylated Avitag); assay: BLI (Octet), steady state: biotinylated SCF on streptavidin biosensor, CD117 D1-2-3 variant as analyte; KD relative to WT
T1 construct: Bought reagent; also called hSCF (Acros Biosystems SCF-H82E1)
T1 sequence (P21583 26-190 limits assumed): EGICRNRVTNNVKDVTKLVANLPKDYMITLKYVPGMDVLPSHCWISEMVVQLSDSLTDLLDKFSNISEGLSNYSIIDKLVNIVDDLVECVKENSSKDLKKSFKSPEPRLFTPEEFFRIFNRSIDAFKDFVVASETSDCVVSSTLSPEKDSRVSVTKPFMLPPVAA
Method: Domains 4 and 5 were used as a negative, non-binding control.
Association was monitored for 300 s and dissociation for 600 s. […] Reference subtraction was performed against buffer only wells. Biosensors were not regenerated and a new set of SA biosensors was used for each analyte. Data were analyzed using the Octet Data Analysis software HT 12.0. Steady state data analysis was performed due to the fast on/off nature of the interaction.

Molecule: E73K: variant of human CD117 (SEQ ID NO: 1) with substitution E73K
- binding to Refmab #1 compared to wild type (antibody Refmab #1 [1]): strong decrease in binding
- Kd (antibody Refmab #1 [2]; 7 concentrations 2000-5 nM, steady state, two individual experiments): 1.2 µM
- change of KD compared to wild type CD117 (antibody Refmab #1 [2]; KD variant vs wild type): 1200 fold
- SCF-dependent proliferation (TF-1 cells [3]): strongly proliferated
- EC50 Experiment #1 (TF-1 cells [4]): 0.00373 µg/mL
- EC50 Experiment #2 (TF-1 cells [4]): 0.00342 µg/mL
- SCF-dependent phosphorylation at position Tyr719 of CD117 (TF-1 cells [5]): showed a SCF-dependent phosphorylation
- Binding of Refmab #1 to TF-1 cells expressing the CD117 variant (Refmab #1): completely abolished
- engraftment of edited CD34+ human cells in immune-deficient mice (CD117+ myeloid cells): engraft essentially as well as unedited cells

B1: Refmab #1: anti-CD117 antibody, VH SEQ ID 15, VL SEQ ID 16, human IgG1 Fc silent (AEASS); also tested as Fab (antibody, V domains shown)
VH: QVQLQQPGAELVKPGASVKMSCKASGYTFTSYNMHWVKQTPGQGLEWIGVIYSGNGDTSYNQKFKGKATLTADKSSSTAYMQINSLTSEDSAVYYCARERDTRFGNWGQGTLVTVSA
VL: NIVLTQSPASLAVSLGLRATISCRASESVDIYGNSFMHWYQQKPGQPPKLLIYLASNLESGVPARFSGSGSRTDFTLTIDPVEADDAATYYCQQNNEDPYTFGGGTKLEIK
modifications: human IgG1 Fc silent (AEASS); Refmab #1 VH; Refmab #1 VL
notes: also tested as Fab
- effect on SCF-dependent proliferation of wild type TF-1 cells (wild type TF-1 cells): decrease in proliferation
- effect on SCF-dependent proliferation of wild type TF-1 cells (wild type TF-1 cells; listed as RefMab #1): pronounced effect
- IC50 in SCF-dependent proliferation assay (wild type TF-1 cells; TF-1 cells): 0.2760 µg/mL
- effect on SCF-dependent proliferation of TF-1 cells with CD117 variants [6]: not affected
- IC50 in SCF-dependent proliferation assay (HSPC's): 0.0623 µg/mL
- blocking of SCF-induced phosphorylation, wild type cells (CD117): can be blocked
- blocking of SCF-induced phosphorylation, E73K variant (variants of CD117): unaffected

B2: V120P (receptor)
extracellular domains 1, 2 and 3: QPSVSPGEPSPPSIHPGKSDLIVRVGDEIRLLCTDPGFVKWTFEILDETNENKQNEWITEKAEATNTGKYTCTNKHGLSNSIYVFVRDPAKLFLPDRSLYGKEDNDTLVRCPLTDPEVTNYSLKGCQGKPLPKDLRFIPDPKAGIMIKSVKRAYHRLCLHCSVDQEGKSVLSEKFILKVRPAFKAVPVVSVSKASYLLREGEEFTVTCTIKDVSSSVYSTWKRENSQTKLQEKYNSWHHGDFNYERQATLTISSARVNDSGVFMCYANNTFGSANVTTTLEVVD
notes: not in the list MOLECULES; also called human CD117 D1-2-3 variant V120P
- melting temperature [7]: two melting points were measured
- binding result (Biotinylated Avitag-hSCF): binds
